Experimental data as given in PubChem BioAssay (NCI).
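Grown in 96-well plates, cells were treated for 48 hours with each compound at five concentrations. Insufficient inhibition: endpoint recorded as highest concentration tested. TGI denotes the concentration required for complete inhibition of growth.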

What was measured:
Test in all cases: NCI tumour cell line growth inhibition, 48 h
HS 578T breast = tested on: HS 578T breast
DU-145 prostate = tested on: DU-145 prostate
IGROV1 ovarian = tested on: IGROV1 ovarian
K-562 leukemia = tested on: K-562 leukemia
SF-268 CNS = tested on: SF-268 CNS
MDA-N = tested on: MDA-N
KM12 colon = tested on: KM12 colon
OVCAR-8 ovarian = tested on: OVCAR-8 ovarian
786-0 renal = tested on: 786-0 renal
HOP-62 NSCLC = tested on: HOP-62 NSCLC
RXF 393 renal = tested on: RXF 393 renal
COLO 205 colon = tested on: COLO 205 colon
SR leukemia = tested on: SR leukemia
SN12C renal = tested on: SN12C renal
UO-31 renal = tested on: UO-31 renal
SNB-19 CNS = tested on: SNB-19 CNS
CAKI-1 renal = tested on: CAKI-1 renal
NCI-H522 lung = tested on: NCI-H522 lung
MDA-MB-435 = tested on: MDA-MB-435
LOX IMVI melanoma = tested on: LOX IMVI melanoma
UACC-257 melanoma = tested on: UACC-257 melanoma
OVCAR-5 ovarian = tested on: OVCAR-5 ovarian
U251 CNS = tested on: U251 CNS
NCI-H460 lung = tested on: NCI-H460 lung
HT29 colon = tested on: HT29 colon
HL-60(TB) leukemia = tested on: HL-60(TB) leukemia
SNB-75 CNS = tested on: SNB-75 CNS
NCI/ADR-RES ovarian = tested on: NCI/ADR-RES ovarian
MCF7 breast = tested on: MCF7 breast
MOLT-4 leukemia = tested on: MOLT-4 leukemia
HCC-2998 colon = tested on: HCC-2998 colon
PC-3 prostate = tested on: PC-3 prostate
A498 renal = tested on: A498 renal
HCT-15 colon = tested on: HCT-15 colon
ACHN renal = tested on: ACHN renal
SW-620 colon = tested on: SW-620 colon
NCI-H226 lung = tested on: NCI-H226 lung
OVCAR-3 ovarian = tested on: OVCAR-3 ovarian
OVCAR-4 ovarian = tested on: OVCAR-4 ovarian
MALME-3M melanoma = tested on: MALME-3M melanoma
SK-MEL-2 melanoma = tested on: SK-MEL-2 melanoma
BT-549 breast = tested on: BT-549 breast
EKVX NSCLC = tested on: EKVX NSCLC
HCT-116 colon = tested on: HCT-116 colon
TK-10 renal = tested on: TK-10 renal
MDA-MB-231 breast = tested on: MDA-MB-231 breast
NCI-H23 lung = tested on: NCI-H23 lung
UACC-62 melanoma = tested on: UACC-62 melanoma
SK-MEL-5 melanoma = tested on: SK-MEL-5 melanoma
RPMI-8226 leukemia = tested on: RPMI-8226 leukemia
SF-295 CNS = tested on: SF-295 CNS
SK-MEL-28 melanoma = tested on: SK-MEL-28 melanoma
T-47D breast = tested on: T-47D breast
SK-OV-3 ovarian = tested on: SK-OV-3 ovarian
CCRF-CEM leukemia = tested on: CCRF-CEM leukemia
A549 NSCLC = tested on: A549 NSCLC
SF-539 CNS = tested on: SF-539 CNS
M14 melanoma = tested on: M14 melanoma

`CC(=O)OCC1OC(Nc2ccc3nc(C)n(-c4ccccc4)c(=O)c3c2)C(OC(C)=O)C(OC(C)=O)C1OC(C)=O` (centres undefined) was tested, and the TGI (HS 578T breast) was > 50 µM, the TGI (DU-145 prostate) was > 50 µM and the TGI (IGROV1 ovarian) was > 50 µM. The TGI (K-562 leukemia) was > 50 µM, the TGI (SF-268 CNS) was > 50 µM and the TGI (MDA-N) was > 50 µM. For the same compound, the TGI (KM12 colon) was > 50 µM, the TGI (OVCAR-8 ovarian) was > 50 µM and the TGI (786-0 renal) was > 50 µM. The TGI (HOP-62 NSCLC) was > 50 µM, the TGI (RXF 393 renal) was > 50 µM and the TGI (COLO 205 colon) was > 50 µM. The TGI (SR leukemia) was > 50 µM, the TGI (SN12C renal) was > 50 µM and the TGI (UO-31 renal) was > 50 µM. For the same compound, the TGI (SNB-19 CNS) was > 50 µM, the TGI (CAKI-1 renal) was > 50 µM and the TGI (NCI-H522 lung) was > 50 µM. For the same compound, the TGI (MDA-MB-435) was > 50 µM, the TGI (LOX IMVI melanoma) was > 50 µM and the TGI (UACC-257 melanoma) was > 50 µM. For the same compound, the TGI (OVCAR-5 ovarian) was > 50 µM, the TGI (U251 CNS) was > 50 µM and the TGI (NCI-H460 lung) was > 50 µM. For the same compound, the TGI (HT29 colon) was > 50 µM, the TGI (HL-60(TB) leukemia) was > 50 µM and the TGI (SNB-75 CNS) was > 50 µM. For the same compound, the TGI (NCI/ADR-RES ovarian) was > 50 µM, the TGI (MCF7 breast) was > 50 µM and the TGI (MOLT-4 leukemia) was > 50 µM. For the same compound, the TGI (HCC-2998 colon) was > 50 µM, the TGI (PC-3 prostate) was > 50 µM and the TGI (A498 renal) was > 50 µM. For the same compound, the TGI (HCT-15 colon) was > 50 µM, the TGI (ACHN renal) was > 50 µM and the TGI (SW-620 colon) was > 50 µM. For the same compound, the TGI (NCI-H226 lung) was > 50 µM, the TGI (OVCAR-3 ovarian) was > 50 µM and the TGI (OVCAR-4 ovarian) was > 50 µM. The TGI (MALME-3M melanoma) was > 50 µM, the TGI (SK-MEL-2 melanoma) was > 50 µM and the TGI (BT-549 breast) was > 50 µM. The TGI (EKVX NSCLC) was > 50 µM, the TGI (HCT-116 colon) was > 50 µM and the TGI (TK-10 renal) was > 50 µM. For the same compound, the TGI (MDA-MB-231 breast) was > 50 µM, the TGI (NCI-H23 lung) was > 50 µM and the TGI (UACC-62 melanoma) was > 50 µM. For the same compound, the TGI (SK-MEL-5 melanoma) was > 50 µM, the TGI (RPMI-8226 leukemia) was 20.4 µM and the TGI (SF-295 CNS) was > 50 µM. The TGI (SK-MEL-28 melanoma) was > 50 µM and the TGI (T-47D breast) was > 50 µM.
`CCCCNC(=O)c1cc(S(=O)(=O)n2cc[nH]c2=O)c(SC)cc1Cl` was tested, and the TGI (HS 578T breast) was > 100 µM, the TGI (DU-145 prostate) was > 100 µM and the TGI (IGROV1 ovarian) was > 100 µM. For the same compound, the TGI (K-562 leukemia) was > 100 µM, the TGI (MDA-N) was > 100 µM and the TGI (KM12 colon) was > 100 µM. The TGI (SK-OV-3 ovarian) was > 100 µM, the TGI (OVCAR-8 ovarian) was > 100 µM and the TGI (786-0 renal) was > 100 µM. The TGI (HOP-62 NSCLC) was > 100 µM, the TGI (RXF 393 renal) was > 100 µM and the TGI (COLO 205 colon) was > 100 µM. The TGI (SR leukemia) was > 100 µM, the TGI (SN12C renal) was > 100 µM and the TGI (UO-31 renal) was > 100 µM. For the same compound, the TGI (SNB-19 CNS) was > 100 µM, the TGI (CAKI-1 renal) was > 100 µM and the TGI (NCI-H522 lung) was > 100 µM. The TGI (MDA-MB-435) was > 100 µM, the TGI (LOX IMVI melanoma) was > 100 µM and the TGI (UACC-257 melanoma) was > 100 µM. The TGI (OVCAR-5 ovarian) was > 100 µM, the TGI (U251 CNS) was > 100 µM and the TGI (NCI-H460 lung) was > 100 µM. The TGI (HT29 colon) was > 100 µM, the TGI (HL-60(TB) leukemia) was > 100 µM and the TGI (NCI/ADR-RES ovarian) was > 100 µM. The TGI (MCF7 breast) was > 100 µM, the TGI (MOLT-4 leukemia) was > 100 µM and the TGI (HCC-2998 colon) was > 100 µM. The TGI (PC-3 prostate) was > 100 µM, the TGI (A498 renal) was 97 µM and the TGI (HCT-15 colon) was > 100 µM. For the same compound, the TGI (ACHN renal) was > 100 µM, the TGI (SW-620 colon) was > 100 µM and the TGI (OVCAR-3 ovarian) was > 100 µM. The TGI (OVCAR-4 ovarian) was > 100 µM, the TGI (CCRF-CEM leukemia) was > 100 µM and the TGI (A549 NSCLC) was > 100 µM. The TGI (MALME-3M melanoma) was > 100 µM, the TGI (SF-539 CNS) was > 100 µM and the TGI (SK-MEL-2 melanoma) was > 100 µM. For the same compound, the TGI (BT-549 breast) was > 100 µM, the TGI (EKVX NSCLC) was > 100 µM and the TGI (HCT-116 colon) was > 100 µM. For the same compound, the TGI (TK-10 renal) was > 100 µM, the TGI (MDA-MB-231 breast) was > 100 µM and the TGI (NCI-H23 lung) was > 100 µM. The TGI (UACC-62 melanoma) was > 100 µM, the TGI (SK-MEL-5 melanoma) was > 100 µM and the TGI (RPMI-8226 leukemia) was > 100 µM. The TGI (SF-295 CNS) was > 100 µM, the TGI (M14 melanoma) was > 100 µM and the TGI (SK-MEL-28 melanoma) was > 100 µM. For the same compound, the TGI (T-47D breast) was > 100 µM.
`O=C1OC2C=CCC1C2` (centres undefined) was tested, and the TGI (HS 578T breast) was > 100 µM, the TGI (DU-145 prostate) was > 100 µM and the TGI (IGROV1 ovarian) was > 100 µM. The TGI (K-562 leukemia) was > 100 µM, the TGI (SF-268 CNS) was > 100 µM and the TGI (MDA-N) was > 100 µM. For the same compound, the TGI (KM12 colon) was > 100 µM, the TGI (SK-OV-3 ovarian) was > 100 µM and the TGI (OVCAR-8 ovarian) was > 100 µM. The TGI (786-0 renal) was > 100 µM, the TGI (HOP-62 NSCLC) was > 100 µM and the TGI (COLO 205 colon) was > 100 µM. For the same compound, the TGI (SR leukemia) was > 100 µM, the TGI (SN12C renal) was > 100 µM and the TGI (UO-31 renal) was > 100 µM. For the same compound, the TGI (SNB-19 CNS) was > 100 µM, the TGI (CAKI-1 renal) was > 100 µM and the TGI (NCI-H522 lung) was > 100 µM. For the same compound, the TGI (MDA-MB-435) was > 100 µM, the TGI (LOX IMVI melanoma) was > 100 µM and the TGI (UACC-257 melanoma) was > 100 µM. For the same compound, the TGI (OVCAR-5 ovarian) was > 100 µM, the TGI (U251 CNS) was > 100 µM and the TGI (NCI-H460 lung) was > 100 µM. For the same compound, the TGI (HT29 colon) was > 100 µM, the TGI (HL-60(TB) leukemia) was > 100 µM and the TGI (SNB-75 CNS) was > 100 µM. For the same compound, the TGI (NCI/ADR-RES ovarian) was > 100 µM, the TGI (MCF7 breast) was > 100 µM and the TGI (MOLT-4 leukemia) was > 100 µM. The TGI (HCC-2998 colon) was > 100 µM, the TGI (PC-3 prostate) was > 100 µM and the TGI (A498 renal) was > 100 µM. The TGI (HCT-15 colon) was > 100 µM, the TGI (ACHN renal) was > 100 µM and the TGI (SW-620 colon) was > 100 µM. For the same compound, the TGI (NCI-H226 lung) was > 100 µM, the TGI (OVCAR-3 ovarian) was > 100 µM and the TGI (CCRF-CEM leukemia) was > 100 µM. For the same compound, the TGI (A549 NSCLC) was > 100 µM, the TGI (MALME-3M melanoma) was > 100 µM and the TGI (SF-539 CNS) was > 100 µM. For the same compound, the TGI (SK-MEL-2 melanoma) was > 100 µM, the TGI (BT-549 breast) was > 100 µM and the TGI (EKVX NSCLC) was > 100 µM. The TGI (HCT-116 colon) was > 100 µM, the TGI (TK-10 renal) was > 100 µM and the TGI (MDA-MB-231 breast) was > 100 µM. The TGI (NCI-H23 lung) was > 100 µM, the TGI (UACC-62 melanoma) was > 100 µM and the TGI (SK-MEL-5 melanoma) was > 100 µM. The TGI (RPMI-8226 leukemia) was > 100 µM, the TGI (SF-295 CNS) was > 100 µM and the TGI (M14 melanoma) was > 100 µM. For the same compound, the TGI (SK-MEL-28 melanoma) was > 100 µM and the TGI (T-47D breast) was > 100 µM.
